Measured values taken from patent US20220089592A1, “IMIDAZO[1,2-A]PYRIDINYL DERIVATIVES AS IRAK4 INHIBITORS” (priority 2019, published 2022).

Columns and labels:
IRAK4 [1] = target: T1, IRAK4 (Homo sapiens, UniProt Q9NWZ3); experiment: 2-hour 10 μM ATP Biochemical Assay (MesoScale Detection format; IRAK4 phosphorylation of biotin labeled IRAK1 activation loop peptide); conditions: IRAK4 MSD BIOCHEMICAL (10 μM ATP) IC50 (μM), 1 nM IRAK4, 2 hours
T1 sequence (Q9NWZ3 1-460): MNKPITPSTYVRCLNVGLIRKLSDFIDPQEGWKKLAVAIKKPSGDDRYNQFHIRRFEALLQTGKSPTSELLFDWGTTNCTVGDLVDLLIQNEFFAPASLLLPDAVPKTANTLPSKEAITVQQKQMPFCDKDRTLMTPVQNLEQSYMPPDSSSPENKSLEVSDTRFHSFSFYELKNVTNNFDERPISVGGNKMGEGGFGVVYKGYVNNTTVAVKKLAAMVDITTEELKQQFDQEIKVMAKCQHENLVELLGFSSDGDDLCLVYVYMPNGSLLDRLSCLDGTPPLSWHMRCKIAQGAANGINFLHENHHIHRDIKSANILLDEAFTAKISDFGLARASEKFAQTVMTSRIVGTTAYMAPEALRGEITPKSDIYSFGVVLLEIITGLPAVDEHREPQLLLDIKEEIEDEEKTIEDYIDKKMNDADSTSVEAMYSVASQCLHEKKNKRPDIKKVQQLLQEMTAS
Outline: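 Kinase reaction run 2 h at 10 μM ATP with biotinylated IRAK1 activation-loop peptide, quenched with EDTA. Phospho-peptide captured on streptavidin MSD plates and detected with anti-phosphothreonine rabbit antibody plus Sulfo-Tag anti-rabbit electrochemiluminescence.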

IRAK4 [2] = target: T1, IRAK4; experiment: 2-hour 1 mM ATP IRAK4 Biochemical assay (as above, but with 100 pM IRAK4 and 1 mM ATP); conditions: IRAK4 MSD BIOCHEMICAL (1 mM ATP) IC50 (μM), 100 pM IRAK4, 2 hours
Outline: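 Run with 100 pM IRAK4 and 1 mM ATP for 2 hours, quenched with EDTA pH 8. Phosphorylated biotinylated peptide captured on streptavidin MSD plates and detected with anti-phosphothreonine antibody plus Sulfo-Tag secondary by electrochemiluminescence.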

IC50 (IRAK4 [1]) [µM] | IC50 (IRAK4 [2]) [µM] | SMILES
0.002 | 0.005 | CCOc1cc2nc([C@H]3C[C@@H]3F)cn2cc1NC(=O)c1cccc(C(F)F)n1 (stereo in doubt) [Example 253, 6-(difluoromethyl)-N-(7-ethoxy-2-((1R*,2S*)-2-fluorocyclopropyl)imidazo[1,2-a]pyridin-6-yl)picolinamide]
0.001 | 0.001 | CCOc1cc2nc(C3CCOCC3)cn2cc1NC(=O)c1csc(C2CC2)n1 [Example 203, 2-cyclopropyl-N-(7-ethoxy-2-(tetrahydro-2H-pyran-4-yl)imidazo[1,2-a]pyridin-6-yl)thiazole-4-carboxamide]
0.008 | 0.018 | CCOc1cc2nc(C3(CO)CC3)cn2cc1NC(=O)c1cccc(C(F)F)n1 [Example 98, 6-(difluoromethyl)-N-(7-ethoxy-2-(1-(hydroxymethyl)cyclopropyl)imidazo[1,2-a]pyridin-6-yl)picolinamide]
0.002 | 0.002 | CCOc1cc2nc(CC3CCOC3)cn2cc1NC(=O)c1ccn(C(F)F)n1 (stereo not shown) [Example 124, 1-(difluoromethyl)-N-(7-ethoxy-2-((tetrahydrofuran-3-yl)methyl)imidazo[1,2-a]pyridin-6-yl)-1H-pyrazole-3-carboxamide]
0.001 | 0.001 | CCOc1cc2nc(C34CC(COC)(C3)C4)cn2cc1NC(=O)c1cccc(C(F)(F)F)n1 [Example 523, N-(7-ethoxy-2-(3-(methoxymethyl)bicyclo[1.1.1]pentan-1-yl)imidazo[1,2-a]pyridin-6-yl)-6-(trifluoromethyl)picolinamide]
0.001 | 0.004 | O=C(Nc1cn2cc(C3CCOCC3)nc2cc1OC1COC1)c1cccc(C(F)F)n1 [Example 182, 6-(difluoromethyl)-N-(7-(oxetan-3-yloxy)-2-(tetrahydro-2H-pyran-4-yl)imidazo[1,2-a]pyridin-6-yl)picolinamide]
0.001 | 0.001 | CC(C#N)Oc1cc2nc(C3CCOCC3)cn2cc1NC(=O)c1cccc(C(F)F)n1 (stereo not shown) [Example 173, N-(7-(1-cyanoethoxy)-2-(tetrahydro-2H-pyran-4-yl)imidazo[1,2-a]pyridin-6-yl)-6-(difluoromethyl)picolinamide]
0.005 | 0.016 | CCOc1cc2nc(C(C)(C)CO)cn2cc1NC(=O)c1cccc(C(F)F)n1 [Example 17, 6-(difluoromethyl)-N-(7-ethoxy-2-(1-hydroxy-2-methylpropan-2-yl)imidazo[1,2-a]pyridin-6-yl)picolinamide]
0.002 | 0.005 | CCOc1cc2nc([C@@H]3C[C@H]3F)cn2cc1NC(=O)c1cccc(C(F)F)n1 (stereo in doubt) [Example 254, 6-(difluoromethyl)-N-(7-ethoxy-2-((1S*, 2R*)-2-fluorocyclopropyl)imidazo[1,2-a]pyridin-6-yl)picolinamide]
0.001 | 0.001 | CCOc1cc2nc(C[C@@H]3CCOC3)cn2cc1NC(=O)c1cccc(C(F)F)n1 (single isomer, unassigned) [Example 16]
0.002 | 0.004 | CCOc1cc2nc(C3CCOCC3)cn2cc1NC(=O)c1cccc(OC)n1 [Example 133, N-(7-ethoxy-2-(tetrahydro-2H-pyran-4-yl)imidazo[1,2-a]pyridin-6-yl)-6-methoxypicolinamide]
0.001 | 0.001 | CCOc1cc2nc(C3CN(C4COC4)C3)cn2cc1NC(=O)c1cccc(C(F)F)n1 [Example 79, 6-(difluoromethyl)-N-(7-ethoxy-2-(1-(oxetan-3-yl)azetidin-3-yl)imidazo[1,2-a]pyridin-6-yl)picolinamide]
0.002 | 0.004 | CCOc1cc2nc(C3CCOCC3)cn2cc1NC(=O)c1csc(CC)n1 [Example 202, N-(7-ethoxy-2-(tetrahydro-2H-pyran-4-yl)imidazo[1,2-a]pyridin-6-yl)-2-ethylthiazole-4-carboxamide]
0.003 | 0.005 | CC1(COc2cc3nc(C[C@@H]4CCOC4)cn3cc2NC(=O)c2cccc(C(F)(F)F)n2)COC1 (single isomer, unassigned) [Example 164]
0.002 | 0.003 | CCOc1cc2nc(C(C)(F)F)cn2cc1NC(=O)c1cccc(C(F)F)n1 [Example 109, N-(2-(1,1-difluoroethyl)-7-ethoxyimidazo[1,2-a]pyridin-6-yl)-6-(difluoromethyl)picolinamide]
0.082 | 0.015 | CCOc1cc2nc(Cc3ccn(C)n3)cn2cc1NC(=O)c1cccc(C(F)F)n1 [Example 84, 6-(difluoromethyl)-N-(7-ethoxy-2-((1-methyl-1H-pyrazol-3-yl)methyl)imidazo[1,2-a]pyridin-6-yl)picolinamide]

IC50 (IRAK4 [1]) [µM] | IC50 (IRAK4 [2]) [µM] | SMILES
0.002 | 0.01 | CCOc1cc2nc(C3CCOCC3)cn2cc1NC(=O)c1cccc(OC2CC2)n1 [Example 361, 6-cyclopropoxy-N-(7-ethoxy-2-(tetrahydro-2H-pyran-4-yl)imidazo[1,2-a]pyridin-6-yl)picolinamide]
0.003 | 0.007 | CCOc1cc2nc(C3CCOCC3)cn2cc1NC(=O)c1cccc(C)c1F [Example 214, N-(7-ethoxy-2-(tetrahydro-2H-pyran-4-yl)imidazo[1,2-a]pyridin-6-yl)-2-fluoro-3-methylbenzamide]
0.002 | 0.006 | CC1(COc2cc3nc(C[C@H]4CCOC4)cn3cc2NC(=O)c2cccc(C(F)(F)F)n2)COC1 (single isomer, unassigned) [Example 165]
0.001 | 0.001 | CCOc1cc2nc(C[C@H]3CCOC3)cn2cc1NC(=O)c1cccc(C(F)F)n1 (single isomer, unassigned) [Example 15]
0.001 | 0.002 | COc1cc(NC(=O)c2cccc(C(F)F)n2)cn2cc(C3CCOC(C)(C)C3)nc12 (stereo not shown) [Example 510, 6-(difluoromethyl)-N-(2-(2,2-dimethyltetrahydro-2H-pyran-4-yl)-8-methoxyimidazo[1,2-a]pyridin-6-yl)picolinamide 2,2,2-trifluoroacetate]
0.003 | 0.006 | CCOc1cc2nc(CF)cn2cc1NC(=O)c1cccc(C(F)(F)F)n1 [Example 20, N-(7-ethoxy-2-(fluoromethyl)imidazo[1,2-a]pyridin-6-yl)-6-(trifluoromethyl)picolinamide]
0.004 | 0.014 | CCOc1cc2nc(CO)cn2cc1NC(=O)c1cccc(C(F)(F)F)n1 [Example 18, N-(7-ethoxy-2-(hydroxymethyl)imidazo[1,2-a]pyridin-6-yl)-6-(trifluoromethyl)picolinamide]
0.001 | 0.001 | CCOc1cc2nc(C3CCOCC3)cn2cc1NC(=O)c1cccc(C(C)(F)F)n1 [Example 227, 6-(1,1-difluoroethyl)-N-(7-ethoxy-2-(tetrahydro-2H-pyran-4-yl)imidazo[1,2-a]pyridin-6-yl)picolinamide]
0.001 | 0.002 | CCOc1cc2nc([C@H](F)[C@@H]3CCOC3)cn2cc1NC(=O)c1cccc(C(F)(F)F)n1 (single isomer, unassigned) [Example 143]
0.001 | 0.001 | CCOc1cc2nc([C@@H](C)[C@@H]3CCOC3)cn2cc1NC(=O)c1cccc(C(F)(F)F)n1 (single isomer, unassigned) [Example 140]
0.004 | 0.02 | CCOc1cc2nc(C3CCOCC3)cn2cc1NC(=O)c1cccc(OC(C)C)n1 [Example 220, N-(7-ethoxy-2-(tetrahydro-2H-pyran-4-yl)imidazo[1,2-a]pyridin-6-yl)-6-isopropoxypicolinamide]
0.001 | 0.001 | CCOc1cc2nc(C3CCNC3)cn2cc1NC(=O)c1cccc(C(F)(F)F)n1 (stereo not shown) [Example 62, N-(7-ethoxy-2-(pyrrolidin-3-yl)imidazo[1,2-a]pyridin-6-yl)-6-(trifluoromethyl)picolinamide]
0.002 | 0.006 | CCOc1cc2nc(C3CCOCC3)cn2cc1NC(=O)c1cccc(C#N)n1 [Example 365, 6-cyano-N-(7-ethoxy-2-(tetrahydro-2H-pyran-4-yl)imidazo[1,2-a]pyridin-6-yl)picolinamide]
0.029 | 0.066 | COc1nc(NC(=O)c2cccc(C(F)(F)F)n2)cn2cc(C3CCOCC3)nc12 [Example 451, N-(8-methoxy-2-(tetrahydro-2H-pyran-4-yl)imidazo[1,2-a]pyrazin-6-yl)-6-(trifluoromethyl)picolinamide 2,2,2-trifluoroacetate]
0.001 | 0.002 | CCOc1cc2nc([C@@H](F)[C@@H]3CCOC3)cn2cc1NC(=O)c1cccc(C(F)(F)F)n1 (single isomer, unassigned) [Example 145]
0.001 | 0.001 | CCOc1cc2nc(C3CCN(C(C)=O)CC3)cn2cc1NC(=O)c1cccc(C(F)(F)F)n1 [Example 72, N-(2-(1-acetylpiperidin-4-yl)-7-ethoxyimidazo[1,2-a]pyridin-6-yl)-6-(trifluoromethyl)picolinamide]
